The values below come from US7968098B2, “HLA-A24-binding KIF-derived peptide” (Kurume University, priority 2006, dated 2011).

This test concerns anti-peptide immunoglobulin G (IgG) in plasma. Briefly: Anti-peptide IgG in plasma measured by the Luminex system. Format: binding, human. To be noted: for Positive cases/total cases, Patients: Table 3, IgGs reactive to peptide in plasma of glioma patients; for Positive cases/total cases, Healthy donors: Table 3, IgGs reactive to peptide in plasma of healthy donors; for Positive cases/total cases, Total: Table 3, patients plus healthy donors; for Total (IgG-positive cases/total cases): positive = >1.25 times no peptide control. As to the method: The levels of anti-peptide immunoglobulin G (IgG) were measured by the Luminex™ system as previously reported (Komatsu N et al, Scand J Clin Invest 2004; 64: 1-11). In brief, plasma was incubated with 25 μl of peptide-coupled color-coded beads (Luminex Corp., Austin, Tex., USA) for 2 h at room temperature on a plate shaker. After incubation, the mixture was washed with a vacuum manifold apparatus and incubated with 100 μl of biotinylated goat anti-human IgG (BA-3080, Vector Laboratories, Burlingame, Calif., USA) for 1 h at room temperature. The plate was then washed, and 100 μl of streptavidin-PE (S-866, Molecular Probes, Eugene, Oreg., USA) was added to each well and was incubated for 30 min at room temperature on a plate shaker. The bound beads were washed three times followed by the addition of 100 μl of Tween-PBS to each well. Fifty μl of each sample was then examined using the Luminex™ system.
Next, the abilities of the KIF-derived peptides to be recognized by IgGs of glioma patients were examined, because IgGs reactive to CTL-directed peptides are detectable in the plasma of patients with different types of cancer (Nakatsura T et al, Eur J Immunol 32: 826-836, 2002), along with that levels of IgG well correlated with clinical responses of patients who received peptide vaccination as reported previously (Mine T et al, Clin Cancer Res 10: 929-937, 2004; Yajima N et al, Clin Cancer Res 11: 5900-5911, 2005). IgGs reactive to a corresponding peptide were judged to be significant when the immunofluorescence intensity in 1:100-diluted plasma exceeded 1.25 times that of the control samples with no peptides. […] Based on these findings, these 8 KIF peptides (3 for KIF1C, 3 for KIF3C, and 2 for KIF21B) were the focus of the following experiments.

Setting [1] is: Healthy donor 1, 1:100-diluted plasma.
Setting [2] is: Healthy donor 2, 1:100-diluted plasma.
Where [3] appears, read: Healthy donor 3, 1:100-diluted plasma.
Setting [4] is: Healthy donor 4, 1:100-diluted plasma.
Setting [5] is: Healthy donor 5, 1:100-diluted plasma.
Setting [6] is: Healthy donor 6, 1:100-diluted plasma.
Where [7] appears, read: Healthy donor 7, 1:100-diluted plasma.
Setting [8] is: Healthy donor 8, 1:100-diluted plasma.
[9] abbreviates: Healthy donor 9, 1:100-diluted plasma.
Setting [10] is: glioma Patient 1, 1:100-diluted plasma.
The mark [11] stands for this setting: glioma Patient 2, 1:100-diluted plasma.
[12] abbreviates: glioma Patient 3, 1:100-diluted plasma.
[13] abbreviates: glioma Patient 4, 1:100-diluted plasma.
[14] abbreviates: glioma Patient 5, 1:100-diluted plasma.
Where [15] appears, read: glioma Patient 6, 1:100-diluted plasma.
Setting [16] is: glioma Patient 7, 1:100-diluted plasma.
The mark [17] stands for this setting: glioma Patient 8, 1:100-diluted plasma.
[18] abbreviates: glioma Patient 9, 1:100-diluted plasma.
[19] abbreviates: glioma Patient 10, 1:100-diluted plasma.

AFIPGRPML (KIF21B 670-678 peptide): the “Positive cases/total cases, Patients” value is 2/10; the “Positive cases/total cases, Healthy donors” value was 2/10; the “Positive cases/total cases, Total” value is reported as 4/20.
Turning to AFIPGRPMLL (KIF21B 670-679 peptide), the “Positive cases/total cases, Patients” value was 2/10; the “Positive cases/total cases, Healthy donors” value is 2/10; the “Positive cases/total cases, Total” value is on record as 4/20.
As to CYEVALADF (KIF1C 756-764 peptide), the “Positive cases/total cases, Patients” value was 0/10; the “Positive cases/total cases, Healthy donors” value is 1/10; the “Positive cases/total cases, Total” value was 1/20. Under setting [1], this sequence returned an Immunofluoresence intensity of 87.3. The sequence further had an Immunofluoresence intensity under setting [2] of 14.0. The Immunofluoresence intensity under setting [3] is reported as 46.8. The sequence also registered an Immunofluoresence intensity under setting [4] of 20.0. Also, the Immunofluoresence intensity under setting [5] was 40.3. For the same sequence, under setting [6], the Immunofluoresence intensity is given as 47.5. Under setting [7], this sequence had an Immunofluoresence intensity of 196.0. The sequence also yielded an Immunofluoresence intensity under setting [8] of 3893.5. Also, the Immunofluoresence intensity under setting [9] is recorded as 27.0. In addition, the “Total (IgG-positive cases/total cases)” value (Table 2, glioma patients) was 0/10. For the same sequence, under “Table 2, healthy donors”, the “Total (IgG-positive cases/total cases)” value is recorded as 1/10. The sequence further showed an Immunofluoresence intensity under setting [10] of 36.5. In addition, the Immunofluoresence intensity under setting [11] was 45.0. This sequence also showed an Immunofluoresence intensity under setting [12] of 28.8. Moreover, the Immunofluoresence intensity under setting [13] came to 11.5. Moreover, the Immunofluoresence intensity under setting [14] is reported as 58.0. Also, under setting [15], the Immunofluoresence intensity is listed as 185.8. The Immunofluoresence intensity under setting [16] is reported as 40.3. The sequence further had an Immunofluoresence intensity under setting [17] of 6.5. Also, the Immunofluoresence intensity under setting [18] turned out to be 7.5. The same sequence displayed an Immunofluoresence intensity under setting [19] of 658.0.
For EYIRVRQDL (KIF3C 607-615 peptide), the “Positive cases/total cases, Patients” value is given as 2/10; the “Positive cases/total cases, Healthy donors” value is 3/10; the “Positive cases/total cases, Total” value was 5/20.
Take GYLIIENFI (KIF3C 629-637 peptide): the “Positive cases/total cases, Patients” value is 0/10; the “Positive cases/total cases, Healthy donors” value is 1/10; the “Positive cases/total cases, Total” value was 1/20.
The like results for IYQEEIRDL (KIF3C 147-155 peptide) were, in that order, 0/10, 1/10 and 1/20.
On the same counts, the results for IYQEEIRDLL (KIF3C 147-156 peptide) are 0/10, 1/10 and 1/20.
For KYCSHSGLVF (KIF21B 473-482 peptide), the “Positive cases/total cases, Patients” value is given as 2/10; the “Positive cases/total cases, Healthy donors” value is on record as 2/10; the “Positive cases/total cases, Total” value is recorded as 4/20.
Take NYEETLSTL (KIF1C 331-339 peptide): the “Positive cases/total cases, Patients” value is given as 0/10; the “Positive cases/total cases, Healthy donors” value is 0/10; the “Positive cases/total cases, Total” value is recorded as 0/20. Under setting [1], this sequence displayed an Immunofluoresence intensity of 70.0. The same sequence displayed an Immunofluoresence intensity under setting [2] of 13.5. The same sequence registered an Immunofluoresence intensity under setting [3] of 29.0. Under setting [4], this sequence gave an Immunofluoresence intensity of 16.5. Under setting [5], this sequence yielded an Immunofluoresence intensity of 35.0. The same sequence had an Immunofluoresence intensity under setting [6] of 40.0. Moreover, the Immunofluoresence intensity under setting [7] was determined as 233.0. This sequence also displayed an Immunofluoresence intensity under setting [8] of 4133.0. Also, under setting [9], the Immunofluoresence intensity stood at 22.5. The Immunofluoresence intensity (Healthy donor 10, 1:100-diluted plasma) came out at 62.5. In addition, the “Total (IgG-positive cases/total cases)” value (Table 2, glioma patients) was 0/10. The “Total (IgG-positive cases/total cases)” value (Table 2, healthy donors) is recorded as 0/10. Under setting [10], this sequence registered an Immunofluoresence intensity of 33.5. This sequence also displayed an Immunofluoresence intensity under setting [11] of 39.5. Also, under setting [12], the Immunofluoresence intensity is on record as 22.0. This sequence had an Immunofluoresence intensity under setting [13] of 10.5. Further, the Immunofluoresence intensity under setting [14] amounted to 53.5. The Immunofluoresence intensity under setting [15] was 86.5. Also, under setting [16], the Immunofluoresence intensity is 35.5. Besides, under setting [17], the Immunofluoresence intensity was determined as 8.5. The sequence also yielded an Immunofluoresence intensity under setting [18] of 5.5. This sequence also displayed an Immunofluoresence intensity under setting [19] of 485.4.
Regarding NYVPGLTPCL (KIF21B 731-740 peptide), the “Positive cases/total cases, Patients” value is on record as 1/10; the “Positive cases/total cases, Healthy donors” value is on record as 1/10; the “Positive cases/total cases, Total” value is given as 2/20.
Take QYLVRASYL (KIF3C 137-145 peptide): the “Positive cases/total cases, Patients” value is 2/10; the “Positive cases/total cases, Healthy donors” value is recorded as 1/10; the “Positive cases/total cases, Total” value is reported as 3/20.
With RFVPPHDCKL (KIF1C 968-977 peptide), the “Positive cases/total cases, Patients” value is on record as 4/10; the “Positive cases/total cases, Healthy donors” value was 5/10; the “Positive cases/total cases, Total” value was 9/20. The sequence also returned an Immunofluoresence intensity under setting [1] of 117.0. Under setting [2], this sequence came in with an Immunofluoresence intensity of 23.5. For the same sequence, the Immunofluoresence intensity under setting [4] came to 33.0. Also, under setting [5], the Immunofluoresence intensity came to 58.5. Under setting [9], this sequence displayed an Immunofluoresence intensity of 32.3. Besides, the “Total (IgG-positive cases/total cases)” value (Table 2, glioma patients) is recorded as 4/10. Also, the “Total (IgG-positive cases/total cases)” value (Table 2, healthy donors) is reported as 5/10. This sequence yielded an Immunofluoresence intensity under setting [10] of 77.0. The Immunofluoresence intensity under setting [13] is reported as 27.0. In addition, under setting [14], the Immunofluoresence intensity is reported as 97.0. Also, under setting [16], the Immunofluoresence intensity worked out at 74.8. Under setting [17], this sequence displayed an Immunofluoresence intensity of 12.5. Further, the Immunofluoresence intensity under setting [18] stood at 19.5.
In the case of RYRAENIMFL (KIF3C 702-711 peptide), the “Positive cases/total cases, Patients” value is on record as 2/10; the “Positive cases/total cases, Healthy donors” value was 5/10; the “Positive cases/total cases, Total” value is listed as 7/20.
The like results for SYDESLSTL (KIF3C 347-355 peptide) were, in that order, 0/10, 0/10 and 0/20.
On to VYIKDLSSF (KIF3C 174-182 peptide), for which the “Positive cases/total cases, Patients” value is given as 1/10; the “Positive cases/total cases, Healthy donors” value is given as 2/10; the “Positive cases/total cases, Total” value is given as 3/20.
VYQIPQRRRL (KIF1C 725-734 peptide): the “Positive cases/total cases, Patients” value is recorded as 3/10; the “Positive cases/total cases, Healthy donors” value is reported as 5/10; the “Positive cases/total cases, Total” value is 8/20. The same sequence registered an Immunofluoresence intensity under setting [1] of 99.5. In addition, the Immunofluoresence intensity under setting [2] is on record as 19.5. The Immunofluoresence intensity under setting [3] was found to be 66.8. The Immunofluoresence intensity under setting [4] is listed as 30.5. Besides, the Immunofluoresence intensity under setting [5] turned out to be 52.5. The “Total (IgG-positive cases/total cases)” value (Table 2, glioma patients) is given as 4/10. For the same sequence, the “Total (IgG-positive cases/total cases)” value (Table 2, healthy donors) is reported as 5/10. Moreover, the Immunofluoresence intensity under setting [10] worked out at 65.5. This sequence also gave an Immunofluoresence intensity under setting [11] of 85.3. The Immunofluoresence intensity under setting [12] amounted to 61.3. Under setting [13], this sequence gave an Immunofluoresence intensity of 19.5. Under setting [14], this sequence returned an Immunofluoresence intensity of 98.5. This sequence yielded an Immunofluoresence intensity under setting [17] of 10.0. This sequence yielded an Immunofluoresence intensity under setting [18] of 9.3.
With VYRDIGEEML (KIF1C 73-82 peptide), the “Positive cases/total cases, Patients” value is given as 3/10; the “Positive cases/total cases, Healthy donors” value is on record as 6/10; the “Positive cases/total cases, Total” value is listed as 9/20. Under setting [2], this sequence registered an Immunofluoresence intensity of 19.5. For the same sequence, the Immunofluoresence intensity under setting [3] stood at 64.5. Moreover, the Immunofluoresence intensity under setting [4] turned out to be 29.5. Besides, the Immunofluoresence intensity under setting [5] amounted to 50.0. Besides, for the setting “Table 2, glioma patients”, the “Total (IgG-positive cases/total cases)” value was 3/10. In addition, the “Total (IgG-positive cases/total cases)” value (Table 2, healthy donors) is given as 6/10. Under setting [10], this sequence displayed an Immunofluoresence intensity of 57.8. Under setting [11], this sequence displayed an Immunofluoresence intensity of 80.5. The sequence further returned an Immunofluoresence intensity under setting [12] of 46.8. For the same sequence, the Immunofluoresence intensity under setting [13] worked out at 17.5. Under setting [16], this sequence yielded an Immunofluoresence intensity of 68.5. Moreover, the Immunofluoresence intensity under setting [17] came out at 11.5. For the same sequence, the Immunofluoresence intensity under setting [18] was found to be 11.0.
